Laboratory results published in ChEMBL document CHEMBL2163299, “Cytotoxic effects of combination of oxidosqualene cyclase inhibitors with atorvastatin in human cancer cells” (J Med Chem, 2012).
The source made the active and inactive calls. No cut-off for these calls is given here.

What was measured:
[1] = Cytotoxicity against human LNZ308 cells after 72 hrs by MTT assay; format: functional, cell-based; details: LNZ308, 72 h
[2] = tested on: LN-229; assay: (§1) Cytotoxicity against human LN229 cells assessed as reduction in cell survival after 72 hrs by MTT assay; format: functional, cell-based
[3] = as §1; format: functional, cell-based; details: LN-229, 72 h
[4] = tested on: HeLa; assay: cells; details: Homo sapiens, 72 h
Description: Cytotoxicity against human HeLa cells after 72 hrs by MTT assay

[5] = in vitro; details: pampa, pH 6.5
Description: Apparent permeability of compound at pH 6.5 by PAMPA

[6] = physchem; details: 1-octanol/TAPSO buffer, pH 7.4
Description: 1-Octanol-TAPSO buffer distribution coefficient, log D of the compound at pH 7.4 by shake-flask method

[7] = tested on: LN-229; assay: Inhibition of DNA synthesis in human LN229 cells assessed as inhibition of tritiated thymidine incorporation at 1 to 3 uM after 24 hrs by beta counting; format: functional, cell-based
[8] = Chemical stability of compound at pH 4.0 after 24 hrs; format: physicochemical; details: buffer, pH 4, 24 h
[9] = tested on: OVCAR; assay: Cytotoxicity against human OVCAR cells after 72 hrs by MTT assay; format: functional, cell-based
[10] = tested on: LN-18; assay: Inhibition of DNA synthesis in human LN18 cells assessed as inhibition of tritiated thymidine incorporation at 1 to 3 uM after 24 hrs by beta counting; format: functional, cell-based
[11] = cells; details: Homo sapiens, HCEC, 72 h
Description: Cytotoxicity against human HCEC cells assessed as reduction in cell survival after 72 hrs by MTT assay

[12] = tested on: LN-18; assay: (§2) Cytotoxicity against human LN18 cells assessed as reduction in cell survival after 72 hrs by MTT assay; format: functional, cell-based
[13] = as §2; format: functional, cell-based; details: LN-18, 72 h
[14] = Chemical stability of compound at pH 7.4 after 24 hrs; format: physicochemical; details: buffer, pH 7.4, 24 h
[15] = tested on: Caco-2; assay: cells; details: Homo sapiens, Caco-2, 72 h
Description: Cytotoxicity against human Caco2 cells after 72 hrs by MTT assay

[16] = target: T1, Lanosterol synthase (Homo sapiens, UniProt P48449); assay: Inhibition of human liver microsome 2,3-OSC after 1 hr by Silica gel plate phosphor imaging
T1 sequence (P48449 whole entry): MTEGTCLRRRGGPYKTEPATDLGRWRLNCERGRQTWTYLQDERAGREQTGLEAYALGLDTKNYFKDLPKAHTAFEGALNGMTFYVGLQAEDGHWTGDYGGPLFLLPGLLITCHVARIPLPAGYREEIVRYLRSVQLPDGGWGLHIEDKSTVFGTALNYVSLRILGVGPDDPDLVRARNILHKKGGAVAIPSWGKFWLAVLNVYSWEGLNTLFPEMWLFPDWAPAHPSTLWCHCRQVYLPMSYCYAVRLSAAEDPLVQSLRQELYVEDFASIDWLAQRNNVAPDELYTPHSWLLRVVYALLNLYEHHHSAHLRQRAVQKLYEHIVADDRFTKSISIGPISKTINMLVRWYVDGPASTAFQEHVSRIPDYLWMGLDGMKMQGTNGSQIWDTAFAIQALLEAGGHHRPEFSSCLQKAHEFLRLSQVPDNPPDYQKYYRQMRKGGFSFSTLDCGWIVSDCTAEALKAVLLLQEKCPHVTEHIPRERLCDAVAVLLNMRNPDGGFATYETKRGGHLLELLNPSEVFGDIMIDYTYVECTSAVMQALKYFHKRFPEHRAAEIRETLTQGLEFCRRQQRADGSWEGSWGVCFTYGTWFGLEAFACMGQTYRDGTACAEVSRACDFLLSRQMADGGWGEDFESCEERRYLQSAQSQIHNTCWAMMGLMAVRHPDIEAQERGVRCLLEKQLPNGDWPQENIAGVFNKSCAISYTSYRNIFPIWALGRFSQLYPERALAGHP

[17] = Cytotoxicity against human Me300 cells after 72 hrs by MTT assay; format: functional, cell-based; details: Me300, 72 h
[18] = tested on: LN-18; assay: Cytotoxicity against human LN18 cells after 72 hrs by MTT assay in presence of atorvastatin; format: functional, cell-based
[19] = tested on: LNCaP; assay: Cytotoxicity against human LNCAP cells after 72 hrs by MTT assay; format: functional, cell-based
[20] = tested on: MCF7; assay: cells; details: Homo sapiens, MCF7, 72 h
Description: Cytotoxicity against human MCF7 cells after 72 hrs by MTT assay

[21] = pampa, pH 6.5
Description: Permeability of compound at pH 6.5 assessed as compound binding to lipid membrane by PAMPA

[22] = tested on: A549; assay: Cytotoxicity against human A549 cells after 72 hrs by MTT assay; format: functional, cell-based; details: A549, 72 h
[23] = tested on: KB; assay: Cytotoxicity against human KB cells after 72 hrs by MTT assay; format: functional, cell-based
[24] = tested on: LN-229; assay: Induction of [14C]acetate incorporation in human LN229 cells at 2 uM after 24 hrs by Beta-counting in presence of 2.5 to 10 uM atorvastatin; format: functional, cell-based
[25] = Cytotoxicity against human HCEC cells at 2 to 10 uM after 72 hrs in by MTT assay in presence of atorvastatin; format: cell-based
[26] = tested on: LN-18; assay: Induction of [14C]acetate incorporation in human LN18 cells at 2 uM after 24 hrs by Beta-counting in presence of 2.5 to 10 uM atorvastatin; format: functional, cell-based
[27] = Cytotoxicity against human LN229 cells assessed as decrease in cell survival at 2 uM after 72 hrs by MTT assay in presence of 2.5 uM atorvastatin; format: functional, LN-229
[28] = tested on: LN-229; assay: Induction of [14C]acetate incorporation in human LN229 cells at 2 uM after 24 hrs by Beta-counting; format: functional, cell-based
[29] = tested on: LN-18; assay: Induction of [14C]acetate incorporation in human LN18 cells at 2 uM after 24 hrs by Beta-counting; format: functional, cell-based
[30] = tested on: LN-229; assay: Cytotoxicity against human LN229 cells at 4 to 10 uM after 72 hrs by MTT assay in presence of atorvastatin; format: functional, cell-based
[31] = tested on: LN-229; assay: Cytotoxicity against human LN229 cells at 4 to 10 uM after 72 hrs by MTT assay; format: functional, cell-based
[32] = tested on: LN-18; assay: Cytotoxicity against human LN18 cells at 2 to 10 uM after 72 hrs by MTT assay in presence of atorvastatin; format: functional, cell-based
[33] = tested on: LN-18; assay: Cytotoxicity against human LN18 cells at 2 to 4 uM after 72 hrs by MTT assay in presence of atorvastatin; format: functional, cell-based
[34] = Cytotoxicity against human HCEC cells assessed as cell death at 4 to 10 uM after 72 hrs by MTT assay in presence of atorvastatin; format: cell-based
[35] = tested on: LN-229; assay: Cytotoxicity against human LN229 cells at 2 uM after 72 hrs by MTT assay in presence of atorvastatin; format: functional, cell-based

C=CCN(C)Cc1ccc(-c2ccc(C(=O)c3ccc(Br)cc3)cc2)cc1.Cl
IC50 [1]: 14.4 µM
Activity [2]: Dose-dependent effect
IC50 [3]: 17.9 µM
IC50 [4]: 2.69 µM
Papp [5]: 0.64 ×10⁻⁶ cm/s
logD [6]: 3.13
inhibition [7]: Active
Stability [8]: Stable
IC50 [9]: > 30 µM
inhibition [10]: Active
IC50 [11]: > 30 µM
Activity [12]: Dose-dependent effect
IC50 [13]: 2.3 µM
Stability [14]: Stable
IC50 [15]: 3.81 µM
IC50 [16]: 0.008 µM
IC50 [17]: 13.9 µM
Activity [18]: Active
IC50 [19]: 5.07 µM
IC50 [20]: 25.7 µM
permeability [21]: 58%
IC50 [22]: 6.19 µM
IC50 [23]: 2.03 µM

CCN(CCO)CCCCOc1ccc2c(-c3ccc(Br)cc3)nsc2c1.Cl
Activity [24]: Active
Activity [25]: Non-toxic
Activity [26]: Active
IC50 [1]: 4.7 µM
Activity [2]: Dose-dependent effect
IC50 [3]: 2.9 µM
IC50 [4]: 6.37 µM
Papp [5]: 0.22 ×10⁻⁶ cm/s
Activity [27]: 80%
Activity [28]: Active
logD [6]: 3.39
inhibition [7]: Active
Stability [8]: Stable
IC50 [9]: 16.7 µM
inhibition [10]: Active
Activity [29]: Active
IC50 [11]: 2.2 µM
Activity [12]: Dose-dependent effect
IC50 [13]: 2 µM
Stability [14]: Stable
IC50 [15]: 1.04 µM
IC50 [16]: 0.0178 µM
IC50 [17]: 6.2 µM
IC50 [19]: > 30 µM
Activity [30]: Active
IC50 [20]: 5.58 µM
permeability [21]: 37%
Activity [31]: Active
IC50 [22]: 5.14 µM
Activity [32]: Active
IC50 [23]: 4.66 µM

C=CCN(C)CCCCCCOc1ccc(C(=O)c2ccc(Br)cc2)c(F)c1.O=C(O)/C=C/C(=O)O
Activity [24]: inactive
Activity [26]: inactive
IC50 [1]: 5.26 µM
Activity [33]: Active
Activity [2]: Dose-dependent effect
IC50 [3]: 8.8 µM
IC50 [4]: 2.89 µM
Papp [5]: 0.12 ×10⁻⁶ cm/s
Activity [28]: Active
logD [6]: 3.92
inhibition [7]: Active
Stability [8]: Stable
IC50 [9]: > 30 µM
inhibition [10]: Active
Activity [29]: Active
IC50 [11]: 3.8 µM
Activity [12]: Dose-dependent effect
IC50 [13]: 6.1 µM
Stability [14]: Stable
Activity [34]: Toxic
IC50 [15]: 2.99 µM
IC50 [17]: > 30 µM
IC50 [19]: > 30 µM
IC50 [20]: 6.77 µM
permeability [21]: 20%
IC50 [22]: 11.3 µM
Activity [35]: Active
IC50 [23]: 2.88 µM
